In ChEMBL document CHEMBL4339189, “Dissymmetric pyridyl-substituted 3,5-bis(arylidene)-4-piperidones as anti-hepatoma agents by inhibiting NF-κB pathway activation” (Eur J Med Chem, 2019):
Activity calls are given as the source filed them. No cut-off for these calls is given here.

What was measured:
L02 = experiment: Cytotoxicity against human LO2 cells assessed as reduction in cell viability incubated for 24 hrs by MTT assay; type: cell-based; conditions: L02, 24 h
SMMC-7721 = experiment: Cytotoxicity against human SMMC7721 cells assessed as reduction in cell viability incubated for 24 hrs by MTT assay; type: functional, cell-based; conditions: SMMC-7721, 24 h
QGY-7703 = experiment: Cytotoxicity against human QGY7703 cells assessed as reduction in cell viability incubated for 24 hrs by MTT assay; type: functional, cell-based; conditions: QGY-7703, 24 h
RAW264.7 [1] = experiment: Antiinflammatory activity in mouse RAW264.7 cells assessed as inhibition of LPS-stimulated TNF-alpha production at 6.0 uM preincubated for 2 hrs followed by LPS stimulaton measured after 22 hrs by ELISA relative to control; type: functional
[2] = Cytotoxicity against human HHL5 cells assessed as reduction in cell viability incubated for 24 hrs by MTT assay; type: cell-based; conditions: HHL-5, 24 h
HepG2 = experiment: Cytotoxicity against human HepG2 cells assessed as reduction in cell viability incubated for 24 hrs by MTT assay; type: functional, cell-based; conditions: HepG2, 24 h
RAW264.7 [3] = experiment: Cytotoxicity against mouse RAW264.7 cells assessed as reduction in cell viability at 6.0 uM incubated for 24 hrs by MTT assay; type: cell-based; conditions: raw264.7, 24 h
RAW264.7 [4] = experiment: Antiinflammatory activity in mouse RAW264.7 cells assessed as inhibition of LPS-stimulated IL-6 production 6.0 uM preincubated for 2 hrs followed by LPS stimulaton measured after 22 hrs by ELISA relative to control; type: functional

Compound | IC50 (L02) [µM] | IC50 (SMMC-7721) [µM] | IC50 (QGY-7703) [µM] | inhibition (RAW264.7 [1]) | IC50 [2] [µM] | IC50 (HepG2) [µM] | Activity (RAW264.7 [3]) | inhibition (RAW264.7 [4]) | inhibition at 6 µM (RAW264.7 [1]) [%] | inhibition (INH) (RAW264.7 [4]) [%]
O=C1/C(=C/c2cccnc2)CN(S(=O)(=O)c2ccc(F)cc2)C/C1=C\c1ccccc1C(F)(F)F | 16.1 | 6.39 | 6.03 | Active | 12.1 | 2.34 | Non-Toxic | Active | – | –
CN1C/C(=C\c2ccc(C#N)cc2)C(=O)/C(=C/c2cccnc2)C1 | > 20 | 13.6 | > 20 | Active | > 20 | 12.7 | Non-Toxic | Active | – | –
O=C1/C(=C/c2cccnc2)CN(S(=O)(=O)c2ccccc2)C/C1=C\c1ccccc1C(F)(F)F | 12.5 | 10.9 | 6.24 | Active | 14.3 | 5.37 | Non-Toxic | Active | – | –
O=C1/C(=C/c2ccncc2)CN(S(=O)(=O)c2ccc(Br)cc2)C/C1=C\c1ccccc1F | 19.4 | 12.6 | 11.5 | inactive | > 20 | 9.3 | Non-Toxic | inactive | – | –
CN1C/C(=C\c2ccncc2)C(=O)/C(=C/c2ccc(C(F)(F)F)cc2)C1 | 17.4 | 17.7 | 10.4 | Active | 12.2 | 8.2 | Non-Toxic | Active | – | –
CN1C/C(=C\c2ccncc2)C(=O)/C(=C/c2ccccc2F)C1 | 14.9 | 7 | 4.9 | Active | 18.5 | 4.6 | Non-Toxic | Active | – | –
O=C1/C(=C/c2ccncc2)CN(S(=O)(=O)c2ccc(Cl)cc2)C/C1=C\c1ccccc1F | 15 | 9.6 | 12.5 | Active | 11.5 | 5.3 | Non-Toxic | Active | – | –
O=C1/C(=C/c2cccnc2)CNC/C1=C\c1ccccc1F | 15.9 | > 20 | 8.89 | inactive | 14.6 | 21 | Non-Toxic | inactive | – | –
COc1cc(/C=C2\CN(C)C/C(=C\c3ccncc3)C2=O)cc(OC)c1 | 13.4 | 5.81 | 8.4 | Active | 11.1 | 9.5 | Non-Toxic | Active | – | –
O=C1/C(=C/c2cccnc2)CN(S(=O)(=O)c2ccc([N+](=O)[O-])cc2)C/C1=C\c1ccccc1C(F)(F)F | 15.7 | 15.9 | 7.66 | Active | 14.1 | 9.37 | Non-Toxic | Active | – | –
CN1C/C(=C\c2ccc(C(F)(F)F)cc2)C(=O)/C(=C/c2cccnc2)C1 | 15.6 | 4.83 | 1.66 | – | 14.2 | 4.79 | Non-Toxic | – | < 30 | <30
COc1ccc(/C=C2\CN(C)C/C(=C\c3ccncc3)C2=O)c(OC)c1OC | 15.6 | 9.08 | 8.35 | Active | 11.9 | 3.56 | Non-Toxic | Active | – | –
CC(=O)Nc1ccc(S(=O)(=O)N2C/C(=C\c3cccnc3)C(=O)/C(=C/c3ccccc3C(F)(F)F)C2)cc1 | 15.3 | 9.83 | 5.38 | Active | > 20 | 4.33 | Non-Toxic | Active | – | –
CN1C/C(=C\c2ccncc2)C(=O)/C(=C/c2cc([N+](=O)[O-])ccc2F)C1 | 17.6 | 14.7 | 5.7 | – | 15.2 | 5.2 | Non-Toxic | – | < 30 | <30
O=C1/C(=C/c2ccncc2)CN(S(=O)(=O)c2ccccc2)C/C1=C\c1ccccc1F | 15.9 | 17.5 | 8.4 | inactive | > 20 | 5.8 | Non-Toxic | inactive | – | –
O=C1/C(=C/c2cccnc2)CN(S(=O)(=O)c2ccc(Cl)cc2)C/C1=C\c1ccccc1C(F)(F)F | 11.9 | 4.88 | 3.44 | Active | 11.1 | 3.62 | Non-Toxic | Active | – | –
O=C1/C(=C/c2ccncc2)CNC/C1=C\c1ccccc1C(F)(F)F | 13.4 | 4.5 | 4.9 | Active | 9.87 | 6.13 | Non-Toxic | Active | – | –
O=C1/C(=C/c2cccnc2)CN(S(=O)(=O)c2ccc([N+](=O)[O-])cc2)C/C1=C\c1ccccc1F | > 20 | > 20 | 5.6 | inactive | > 20 | 12.8 | Non-Toxic | inactive | – | –
O=C1/C(=C/c2cccnc2)CN(S(=O)(=O)c2ccc(Br)cc2)C/C1=C\c1ccccc1F | 14.6 | 9.1 | 12.8 | inactive | 14.2 | 8.7 | Non-Toxic | inactive | – | –
O=C1/C(=C/c2cccnc2)CN(S(=O)(=O)c2ccc(C(F)(F)F)cc2)C/C1=C\c1ccccc1F | 11.3 | 7.9 | 4.5 | Active | 14.3 | 2.4 | Non-Toxic | Active | – | –
O=C1/C(=C/c2ccncc2)CN(S(=O)(=O)c2ccc([N+](=O)[O-])cc2)C/C1=C\c1ccccc1F | 18.4 | 15.8 | 8.8 | inactive | 16 | 11.3 | Non-Toxic | inactive | – | –
CN1C/C(=C\c2ccncc2)C(=O)/C(=C/c2ccccc2C(F)(F)F)C1 | 15.8 | 4.1 | 4.5 | – | 10.4 | 3.3 | Non-Toxic | – | < 30 | <30
O=C1/C(=C/c2cccnc2)CN(S(=O)(=O)c2ccc(F)cc2)C/C1=C\c1ccccc1F | 15.6 | 9.9 | 15.3 | inactive | 12.6 | 15.6 | Non-Toxic | inactive | – | –
CN1C/C(=C\c2ccncc2)C(=O)/C(=C/c2ccc(C#N)cc2)C1 | 14 | 18.5 | 7.4 | Active | 11.5 | 13.9 | Non-Toxic | Active | – | –
Cc1ccc(S(=O)(=O)N2C/C(=C\c3ccncc3)C(=O)/C(=C/c3ccccc3F)C2)cc1 | > 20 | 13.2 | > 20 | inactive | 13.3 | 9.7 | Non-Toxic | inactive | – | –
N#Cc1ccc(S(=O)(=O)N2C/C(=C\c3ccncc3)C(=O)/C(=C/c3ccccc3F)C2)cc1 | > 20 | 16.2 | 8.5 | Active | 15.7 | 4.5 | Non-Toxic | Active | – | –
CN1C/C(=C\c2cccnc2)C(=O)/C(=C/c2ccccc2F)C1 | 15.9 | 5.42 | 4.47 | Active | 13.5 | 4.81 | Non-Toxic | Active | – | –
